The values below come from patent US12435046B2, “Alkynyl quinazoline compounds” (Black Diamond Therapeutics, Inc., priority 2019, dated 2025).

One may read the IC50 as the midpoint of a concentration-inhibition curve. A lower IC50 goes with greater potency in that assay.

For assay [1], the target named is T1, EGFR wt (Homo sapiens, UniProt P00533).
T1 construct: expressed in transfected cells; host or cells: BaF3 (murine pro-B) cells, retroviral transduction with pMXs-IRES-Blasticidin
The assay can be described thus: BaF3 cell proliferation assay (CellTiterGlo), EGFR wt. The assay is classed as cell-based. The conditions noted are these: BaF3 cells, 3 days. Put shortly:
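BaF3 cells engineered by retroviral transduction to express EGFR and selected for blasticidin resistance and IL-3 independent growth were suspended at 1.3E5 c/ml in RPMI with 10% heat inactivated FBS, 2% L-glutamine and 1% Pen/Strep. They were plated in triplicate in 96 well plates and exposed to vehicle or varying drug concentrations for 3 days. Viability was quantified by CellTiterGlo ATP luminescence, normalized to vehicle, and curves fitted in PRISM.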

For assay [2], the target named is T2, EGFR NPH (Homo sapiens, UniProt P00533, INS773NPH).
T2 construct: expressed in transfected cells; host or cells: BaF3 (murine pro-B) cells, retroviral transduction with pMXs-IRES-Blasticidin
The assay can be described thus: BaF3 cell proliferation assay (CellTiterGlo), EGFR NPH. The assay is classed as cell-based. Particulars: Table A; BaF3 cells, 3 days. On the procedure:
(§1) Retroviral Production: EGFR mutants were subcloned into pMXs-IRES-Blasticidin (RTV-016, Cell Biolabs, San Diego, CA). Retroviral expression vector retrovirus was produced by transient transfection of HEK 293T cells with the retroviral EGFR mutant expression vector pMXs-IRES-Blasticidin (RTV-016, Cell Biolabs), pCMV-Gag-Pol vector and pCMV-VSV-G-Envelope vector. Briefly, HEK 293T/17 cells were plated in 100 mm collagen coated plate (354450, Corning Life Sciences, Tewksbury, MA) (4×10^5 per plate) and incubated overnight. The next day, retroviral plasmids (3 ng of EGFR mutant, 1.0 ng of pCMV-Gag-Pol and 0.5 ng pCMV-VSV-G) were mixed in 500 n1 of Optimem (31985, Life Technologies). The mixture was incubated at room temperature for 5 min and then added to Optimem containing transfection reagent Lipofectamine (11668, Invitrogen) and incubated for 20 minutes. Mixture was then added dropwise to HEK 293T cells. The next day the medium was replaced with fresh culture medium and retrovirus was harvested @ 24 and 48 hrs.
(§2) Generation of EGFR mutant stable cell lines: BaF3 cells (1.5E5 cells) were infected with 1 ml of viral supernatant supplemented with 8 ng/ml polybrene by centrifuging for 30 min at 1000 rpm. Cells were placed in a 37° C. incubator overnight. Cells were then spun for 5 minutes to pellet the cells. Supernatant was removed and cells re-infected a fresh 1 ml of viral supernatant supplemented with 8 ng/ml polybrene by centrifuging for 30 min at 1000 rpm. Cells were placed in 37° C. incubator overnight. Cells were then maintained in RPMI containing 10% Heat Inactivated FBS, 2% L-glutamine containing 10 ng/ml IL-3. After 48 hours cells were selected for retroviral infection in 10 […] for one week. Blasticidin resistant populations were washed twice in phosphate buffered saline before plating in media lacking IL-3 to select for IL-3 independent growth.
(§3) Assay for cell proliferation: BaF3 cell lines were resuspended at 1.3E5 c/ml in RPMI containing 10% Heat Inactivated FBS, 2% L-glutamine and 1% Pen/Strep and dispensed in triplicate (17.5E4 c/well) into 96 well plates. To determine the effect of drug on cell proliferation, cells incubated for 3 days in the presence of vehicle control or test drug at varying concentrations. Inhibition of cell growth was determined by luminescent quantification of intracellular ATP content using CellTiterGlo (Promega), according to the protocol provided by the manufacturer. Comparison of cell number on day 0 versus 72 hours post drug treatment was used to plot dose-response curves. The number of viable cells was determined and normalized to vehicle-treated controls. Inhibition of proliferation, relative to vehicle-treated controls was expressed as a fraction of 1 and graphed using PRISM® software (Graphpad Software, San Diego, CA). EC50 values were determined with the same application.

For assay [3], the target named is T3, HER2 YVMA (Homo sapiens, UniProt P04626, INS775YVMA).
T3 construct: expressed in transfected cells; host or cells: BaF3 (murine pro-B) cells
The assay can be described thus: BaF3 cell proliferation assay (CellTiterGlo), HER2 YVMA. The assay is classed as cell-based. The conditions noted are these: Table A; BaF3 cells, 3 days. Background: In ATP-based viability assays light output follows the ATP content of the culture.

The target in assay [4] is T4, HER2 S310F (Homo sapiens, UniProt P04626, S310F).
T4 construct: expressed in transfected cells; host or cells: BaF3 (murine pro-B) cells
The assay can be described thus: BaF3 cell proliferation assay (CellTiterGlo), HER2 S310F. Particulars: Table A; BaF3 cells, 3 days. In kind it is cell-based.

Assay [5] deals with T5, EGFR V3 (Homo sapiens, UniProt P00533, DELINS30-297G).
T5 construct: expressed in transfected cells; host or cells: BaF3 (murine pro-B) cells, retroviral transduction with pMXs-IRES-Blasticidin
The assay can be described thus: BaF3 cell proliferation assay (CellTiterGlo), EGFR V3. The assay is classed as cell-based. Particulars: BaF3 cells, 3 days. The essentials:
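BaF3 cells made IL-3-independent by retroviral expression of each EGFR or HER2 mutant were treated in triplicate with compound for 72 h. Viability was read by CellTiterGlo ATP luminescence and normalised to vehicle, and EC50 was fitted from dose-response curves.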

For assay [6], the target named is T6, EGFR SVD (Homo sapiens, UniProt P00533, INS770SVD).
T6 construct: expressed in transfected cells; host or cells: BaF3 (murine pro-B) cells, retroviral transduction with pMXs-IRES-Blasticidin
The assay can be described thus: BaF3 cell proliferation assay (CellTiterGlo), EGFR SVD. The assay is classed as cell-based. The conditions noted are these: Table A; BaF3 cells, 3 days. As for the experimental part:
as §1, §2, §3

For assay [7], the target named is T7, EGFR G598V (Homo sapiens, UniProt P00533, G598V).
T7 construct: expressed in transfected cells; host or cells: BaF3 (murine pro-B) cells, retroviral transduction with pMXs-IRES-Blasticidin
The assay can be described thus: BaF3 cell proliferation assay (CellTiterGlo), EGFR G598V. The assay is classed as cell-based. Particulars: Table B; BaF3 cells, 3 days. On the procedure: as §1, with “The mixture was incubated at room temperature for 5 min and then added to Optimem containing transfection reagent Lipofectamine (11668, Invitrogen) and incubated for 20 minutes. Mixture was then added dropwise to HEK 293T cells. The next day the medium was replaced with fresh culture medium and retrovirus was harvested @ 24 and 48 hrs.” left out
as §3, with “To determine the effect of drug on cell proliferation, cells incubated for 3 days in the presence of vehicle control or test drug at varying concentrations.” left out, “Comparison of cell number on day 0 versus 72 hours post drug treatment was used to plot dose-response curves.” left out

Assay [8] deals with T8, EGFR V2 (Homo sapiens, UniProt P00533, DEL545-627).
T8 construct: expressed in transfected cells; host or cells: BaF3 (murine pro-B) cells, retroviral transduction with pMXs-IRES-Blasticidin
The assay can be described thus: BaF3 cell proliferation assay (CellTiterGlo), EGFR V2. The assay is classed as cell-based. The conditions noted are these: Table B; BaF3 cells, 3 days. On the procedure: as §1, with “The mixture was incubated at room temperature for 5 min and then added to Optimem containing transfection reagent Lipofectamine (11668, Invitrogen) and incubated for 20 minutes. Mixture was then added dropwise to HEK 293T cells. The next day the medium was replaced with fresh culture medium and retrovirus was harvested @ 24 and 48 hrs.” left out
as §3, with “To determine the effect of drug on cell proliferation, cells incubated for 3 days in the presence of vehicle control or test drug at varying concentrations.” left out, “Comparison of cell number on day 0 versus 72 hours post drug treatment was used to plot dose-response curves.” left out

The target of assay [9] is T9, EGFR A289V (Homo sapiens, UniProt P00533, A289V).
T9 construct: expressed in transfected cells; host or cells: BaF3 (murine pro-B) cells, retroviral transduction with pMXs-IRES-Blasticidin
The assay can be described thus: BaF3 cell proliferation assay (CellTiterGlo), EGFR A289V. Particulars: Table B; BaF3 cells, 3 days. The assay is classed as cell-based. As for the experimental part: as §1, with “The mixture was incubated at room temperature for 5 min and then added to Optimem containing transfection reagent Lipofectamine (11668, Invitrogen) and incubated for 20 minutes. Mixture was then added dropwise to HEK 293T cells. The next day the medium was replaced with fresh culture medium and retrovirus was harvested @ 24 and 48 hrs.” left out
as §3, with “To determine the effect of drug on cell proliferation, cells incubated for 3 days in the presence of vehicle control or test drug at varying concentrations.” left out, “Comparison of cell number on day 0 versus 72 hours post drug treatment was used to plot dose-response curves.” left out

Assay [10] addresses T10, EGFR V6 (Homo sapiens, UniProt P00533, DEL434-544).
T10 construct: expressed in transfected cells; host or cells: BaF3 (murine pro-B) cells, retroviral transduction with pMXs-IRES-Blasticidin
The assay can be described thus: BaF3 cell proliferation assay (CellTiterGlo), EGFR V6. In kind it is cell-based. Particulars: Table B; BaF3 cells, 3 days. On the procedure: as §1, with “The mixture was incubated at room temperature for 5 min and then added to Optimem containing transfection reagent Lipofectamine (11668, Invitrogen) and incubated for 20 minutes. Mixture was then added dropwise to HEK 293T cells. The next day the medium was replaced with fresh culture medium and retrovirus was harvested @ 24 and 48 hrs.” left out
as §3, with “To determine the effect of drug on cell proliferation, cells incubated for 3 days in the presence of vehicle control or test drug at varying concentrations.” left out, “Comparison of cell number on day 0 versus 72 hours post drug treatment was used to plot dose-response curves.” left out

Assay [11] deals with GBM tumors. Particulars: phase 2 study, GBM patients, erlotinib in combination with radiation and temozolomide; cited from earlier work.

Structures are written as SMILES.

T5 sequence (P00533 with tags, fused parts or gaps DELINS30-297G): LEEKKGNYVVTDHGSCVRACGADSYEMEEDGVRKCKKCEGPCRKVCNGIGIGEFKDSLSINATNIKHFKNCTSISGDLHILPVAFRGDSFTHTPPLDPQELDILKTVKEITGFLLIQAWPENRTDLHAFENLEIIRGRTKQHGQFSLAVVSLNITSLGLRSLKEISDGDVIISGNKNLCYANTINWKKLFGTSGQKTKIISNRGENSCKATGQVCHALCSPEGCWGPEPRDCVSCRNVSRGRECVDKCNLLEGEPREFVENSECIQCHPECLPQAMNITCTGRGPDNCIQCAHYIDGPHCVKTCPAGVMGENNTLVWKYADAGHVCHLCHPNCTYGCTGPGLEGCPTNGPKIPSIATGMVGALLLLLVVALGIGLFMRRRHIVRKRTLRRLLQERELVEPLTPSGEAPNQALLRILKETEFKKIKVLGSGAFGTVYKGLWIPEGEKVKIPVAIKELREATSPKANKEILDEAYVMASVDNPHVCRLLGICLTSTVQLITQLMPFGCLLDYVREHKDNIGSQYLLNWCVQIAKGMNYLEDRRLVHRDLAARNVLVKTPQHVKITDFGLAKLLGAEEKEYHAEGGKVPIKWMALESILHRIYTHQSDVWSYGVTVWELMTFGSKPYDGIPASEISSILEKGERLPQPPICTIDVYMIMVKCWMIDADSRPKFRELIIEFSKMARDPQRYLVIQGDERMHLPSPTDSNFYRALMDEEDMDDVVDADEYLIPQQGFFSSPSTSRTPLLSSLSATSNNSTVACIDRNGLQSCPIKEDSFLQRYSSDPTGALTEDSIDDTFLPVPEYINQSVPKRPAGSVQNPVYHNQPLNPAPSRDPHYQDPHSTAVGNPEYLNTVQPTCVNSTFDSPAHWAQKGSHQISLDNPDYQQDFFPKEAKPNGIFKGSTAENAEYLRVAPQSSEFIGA
T2 sequence (P00533 with tags, fused parts or gaps INS773NPH): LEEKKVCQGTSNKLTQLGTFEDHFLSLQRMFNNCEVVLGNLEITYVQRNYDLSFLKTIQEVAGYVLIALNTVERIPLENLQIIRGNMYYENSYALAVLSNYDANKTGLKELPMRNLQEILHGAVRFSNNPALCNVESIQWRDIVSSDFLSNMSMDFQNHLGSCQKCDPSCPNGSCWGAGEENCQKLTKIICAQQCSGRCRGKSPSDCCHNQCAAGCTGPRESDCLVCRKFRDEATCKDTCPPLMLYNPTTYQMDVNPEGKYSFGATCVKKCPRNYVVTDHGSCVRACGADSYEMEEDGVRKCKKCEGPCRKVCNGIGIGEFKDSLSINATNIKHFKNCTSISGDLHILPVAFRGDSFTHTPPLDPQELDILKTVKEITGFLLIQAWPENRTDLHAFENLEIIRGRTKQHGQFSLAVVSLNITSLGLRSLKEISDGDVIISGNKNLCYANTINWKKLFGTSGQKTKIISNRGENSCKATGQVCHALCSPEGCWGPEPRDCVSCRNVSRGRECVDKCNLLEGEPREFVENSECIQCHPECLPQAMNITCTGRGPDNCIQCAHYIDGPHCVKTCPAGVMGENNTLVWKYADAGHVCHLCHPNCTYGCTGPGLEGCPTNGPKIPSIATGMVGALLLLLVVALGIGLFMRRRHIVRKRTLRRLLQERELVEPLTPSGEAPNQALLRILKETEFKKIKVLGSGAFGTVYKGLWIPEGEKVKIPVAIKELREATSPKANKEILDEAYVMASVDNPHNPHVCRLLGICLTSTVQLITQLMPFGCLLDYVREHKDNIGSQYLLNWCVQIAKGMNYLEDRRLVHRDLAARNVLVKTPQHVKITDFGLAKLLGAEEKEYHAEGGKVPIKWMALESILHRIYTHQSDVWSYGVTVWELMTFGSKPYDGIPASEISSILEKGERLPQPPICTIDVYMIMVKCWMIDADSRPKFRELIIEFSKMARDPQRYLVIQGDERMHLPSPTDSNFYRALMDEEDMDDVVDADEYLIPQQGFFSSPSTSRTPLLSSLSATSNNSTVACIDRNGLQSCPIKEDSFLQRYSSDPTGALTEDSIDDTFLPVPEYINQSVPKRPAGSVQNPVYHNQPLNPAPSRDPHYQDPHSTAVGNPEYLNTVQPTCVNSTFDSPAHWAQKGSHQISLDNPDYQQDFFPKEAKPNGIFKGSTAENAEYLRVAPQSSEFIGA
T3 sequence (P04626 with tags, fused parts or gaps INS775YVMA): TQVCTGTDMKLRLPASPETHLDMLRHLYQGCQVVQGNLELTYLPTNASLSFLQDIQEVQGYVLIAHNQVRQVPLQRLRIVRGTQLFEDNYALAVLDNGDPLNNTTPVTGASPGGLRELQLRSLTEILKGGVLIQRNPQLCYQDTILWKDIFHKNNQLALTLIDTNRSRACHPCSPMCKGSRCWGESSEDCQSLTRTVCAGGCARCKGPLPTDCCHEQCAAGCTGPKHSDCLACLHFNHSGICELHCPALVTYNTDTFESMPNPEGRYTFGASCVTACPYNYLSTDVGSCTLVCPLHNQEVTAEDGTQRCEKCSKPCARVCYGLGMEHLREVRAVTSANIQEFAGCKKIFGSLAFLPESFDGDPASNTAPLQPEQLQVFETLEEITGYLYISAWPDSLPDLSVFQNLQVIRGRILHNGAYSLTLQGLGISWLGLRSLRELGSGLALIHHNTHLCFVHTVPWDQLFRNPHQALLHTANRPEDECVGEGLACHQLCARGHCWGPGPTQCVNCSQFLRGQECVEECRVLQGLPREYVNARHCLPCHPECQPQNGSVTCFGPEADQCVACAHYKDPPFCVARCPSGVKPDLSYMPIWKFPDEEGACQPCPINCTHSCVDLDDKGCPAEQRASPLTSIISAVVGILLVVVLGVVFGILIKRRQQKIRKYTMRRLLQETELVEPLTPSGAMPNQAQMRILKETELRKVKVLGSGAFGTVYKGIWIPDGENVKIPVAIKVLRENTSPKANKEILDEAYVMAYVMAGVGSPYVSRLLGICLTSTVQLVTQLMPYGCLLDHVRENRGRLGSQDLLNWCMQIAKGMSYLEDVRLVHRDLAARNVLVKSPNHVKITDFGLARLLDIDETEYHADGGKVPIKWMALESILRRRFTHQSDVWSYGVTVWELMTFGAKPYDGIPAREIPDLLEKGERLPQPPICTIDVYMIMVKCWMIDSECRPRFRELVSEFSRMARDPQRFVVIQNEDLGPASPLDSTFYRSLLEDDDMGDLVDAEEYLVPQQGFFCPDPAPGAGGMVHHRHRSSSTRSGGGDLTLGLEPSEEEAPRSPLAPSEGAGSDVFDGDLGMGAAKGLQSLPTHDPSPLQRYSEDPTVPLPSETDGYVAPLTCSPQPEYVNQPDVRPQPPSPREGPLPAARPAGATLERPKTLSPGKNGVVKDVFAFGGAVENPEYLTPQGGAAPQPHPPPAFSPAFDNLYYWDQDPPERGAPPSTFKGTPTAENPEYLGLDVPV
T1 sequence (P00533 25-1210): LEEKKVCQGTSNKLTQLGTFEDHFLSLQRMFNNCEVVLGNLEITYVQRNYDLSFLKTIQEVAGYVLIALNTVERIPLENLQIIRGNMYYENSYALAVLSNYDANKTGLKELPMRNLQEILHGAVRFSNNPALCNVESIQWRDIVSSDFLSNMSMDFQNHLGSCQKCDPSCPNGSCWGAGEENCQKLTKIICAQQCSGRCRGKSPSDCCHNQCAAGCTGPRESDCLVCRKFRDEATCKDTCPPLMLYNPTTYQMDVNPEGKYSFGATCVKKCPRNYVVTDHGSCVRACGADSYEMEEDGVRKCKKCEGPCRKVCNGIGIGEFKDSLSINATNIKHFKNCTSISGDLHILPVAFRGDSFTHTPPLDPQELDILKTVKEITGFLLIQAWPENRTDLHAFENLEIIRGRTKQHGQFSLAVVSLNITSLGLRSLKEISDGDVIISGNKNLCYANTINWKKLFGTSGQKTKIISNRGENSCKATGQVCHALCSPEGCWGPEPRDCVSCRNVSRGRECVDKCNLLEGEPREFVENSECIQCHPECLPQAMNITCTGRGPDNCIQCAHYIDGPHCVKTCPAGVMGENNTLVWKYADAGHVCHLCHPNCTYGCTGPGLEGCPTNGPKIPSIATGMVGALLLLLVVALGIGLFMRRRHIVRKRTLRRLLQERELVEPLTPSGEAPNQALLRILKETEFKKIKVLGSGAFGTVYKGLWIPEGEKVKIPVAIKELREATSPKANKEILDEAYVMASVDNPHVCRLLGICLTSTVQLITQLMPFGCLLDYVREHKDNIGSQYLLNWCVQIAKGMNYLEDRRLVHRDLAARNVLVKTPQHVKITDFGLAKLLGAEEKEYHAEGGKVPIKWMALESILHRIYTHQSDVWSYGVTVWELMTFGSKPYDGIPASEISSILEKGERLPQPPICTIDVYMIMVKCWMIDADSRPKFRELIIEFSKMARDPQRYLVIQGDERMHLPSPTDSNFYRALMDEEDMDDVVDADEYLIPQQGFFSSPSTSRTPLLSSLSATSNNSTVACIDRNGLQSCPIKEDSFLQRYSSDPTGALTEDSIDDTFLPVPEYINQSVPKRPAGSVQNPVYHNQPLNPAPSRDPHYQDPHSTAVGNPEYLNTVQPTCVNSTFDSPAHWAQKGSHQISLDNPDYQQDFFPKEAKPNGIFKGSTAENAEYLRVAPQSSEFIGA

For the compound `C=CC(=O)Nc1cc2c(Nc3cccc(Cl)c3F)ncnc2cc1C#C[C@@]1(C)CCN(C)C1` [Compound 2, (R)—N-(4-((3-chloro-2-fluorophenyl)amino)-7-((1,3-dimethylpyrrolidin-3-yl)ethynyl)quinazolin-6-yl)acrylamide], the 50% inhibitory concentration (IC50) in assay [1] (Table A) was 100 to 500 nM; in [2] it was 50 to 100 nM; in assay [3] it was 100 to 500 nM; in assay [4], 50 to 100 nM; in assay [5] (Table A) it was not above 50 nM; in [6], 100 to 500 nM.

On to `C=CC(=O)Nc1cc2c(Nc3cccc(Cl)c3F)ncnc2cc1C#C[C@]1(C)CCN(C)C1` [Compound 3, (S)—N-(4-((3-chloro-2-fluorophenyl)amino)-7-((1,3-dimethylpyrrolidin-3-yl)ethynyl)quinazolin-6-yl)acrylamide], for which the IC50 in assay [1] (Table A) was 50 to 100 nM; in assay [2], 50 to 100 nM; in assay [3], 100 to 500 nM; in assay [4] it was 50 to 100 nM; in assay [5] (Table A), not above 50 nM; in assay [6], 100 to 500 nM.

For the compound `C=CC(=O)Nc1cc2c(Nc3ccc(OCc4ccccn4)c(Cl)c3)ncnc2cc1C#CC1(C)CCN(C)C1` (stereo not drawn) [Compound 12, N-(4-((3-chloro-4-(pyridin-2-ylmethoxy)phenyl)amino)-7-((1,3-dimethylpyrrolidin-3-yl)ethynyl)quinazolin-6-yl)acrylamide], the half-maximal inhibitory concentration (IC50) in assay [1] (Table A) is more than 500 nM; in assay [2] it was not above 50 nM; in assay [3], not above 50 nM; in [4], not above 50 nM; in assay [5] (Table A) it was not above 50 nM; in assay [6], not above 50 nM.

`CN1C[C@H]2C[C@@]2(C#Cc2cc3ncnc(Nc4cccc(Cl)c4F)c3cc2NC(=O)/C=C/CN2CCOCC2)C1` [Compound 37, (E)-N-(4-((3-chloro-2-fluorophenyl)amino)-7-(((1R,5S)-3-methyl-3-azabicyclo[3.1.0]hexan-1-yl)ethynyl)quinazolin-6-yl)-4-morpholinobut-2-enamide]: the IC50 in assay [1] (Table A) is not above 50 nM; in [1] (Table B) it was 25 to 50 nM; in assay [7], not above 10 nM; in [3] it was 100 to 500 nM; in [8], not above 10 nM; in assay [4], 100 to 500 nM. Moreover, the IC50 was not above 10 nM in assay [9], not above 50 nM in assay [5] (Table A), 10 to 25 nM in assay [5] (Table B) and not above 10 nM in [10].

Consider `C#Cc1cccc(Nc2ncnc3cc(OCCOC)c(OCCOC)cc23)c1` [erlotinib], for which, in assay [11], the “median OS (mOS)” value is recorded as 8.6 months and the “median PFS (mPFS)” value is given as 2.8 months.
